US20220074923A1, “METHODS OF IDENTIFYING PARKIN-MEDIATED MITOPHAGY ACTIVATING AGENTS” (THE GOVERNING COUNCIL OF THE UNIVERSITY OF TORONTO, priority 2018, published 2022)

System: HeLa cells stably expressing GFP parkin and mito-DsRed
Assay: Mitochondrial clearance assay
Assay type: cell-based
Method: HeLa cells stably expressing GFP parkin and mito-DsRed were seeded into 12-well plates containing coverslips and allowed to adhere overnight. Cells were then treated with DMSO or 0.5 μM SR3677 for 2 hours prior to addition of 10 μM CCCP for 24 hours. Cells were then washed with PBS, fixed with 4% PFA and washed with PBS again prior to the mounting of coverslips onto glass slides. Mitochondrial clearance was quantified by counting the number of cells in each treatment to retain mito-DsRed signal. 3 independent trials were performed with at least 50 cells quantified per trial.

In the case of CN(C)CCOc1cc(-c2cn[nH]c2)ccc1NC(=O)[C@@H]1COc2ccccc2O1 [SR3677], the “mitochondrial mass without CCCP” value (0.5 μM SR3677, 24 hour DMSO treatment) is reported as “retained mitochondrial mass” and the “% of cells that retained mito-DsRed” value (pre-treated with 0.5 μM SR3677, 24 hour 10 μM CCCP) is reported as 28±8.21%.
